Measured values: patent US7256279B2, “Protein having ribonucleotide reductase activity and DNA thereof” (Takeda Pharmaceutical Company Limited, priority 1999, dated 2007)

Experiments:
Assay type in all cases: cell-based
MCF7 cells [1] = assay: DNA repair activity through ribonucleotide reductase activity ([3H]-CDP converted to [3H]-dCTP in damaged DNA) after oligonucleotide introduction; conditions: 14 Gy γ-ray irradiation 4 hours after lipofectin introduction, cells collected after 0, 24 and 48 hours (FIG. 5)
Experimental: DNA repair activity through ribonucleotide reductase activity was measured by converting [^3H]-CDP to [^3H]-dCTP through ribonucleotide reductase in cells, in which the DNA had been damaged, and measuring the radioactivity of [^3H]-dCTP in the damaged DNA.
1×10^6 MCF7 cells were propagated on 10 cm petri dishes, cellular DNA was damaged (14 Gy γ-ray irradiation) 24 hours later, and after 0, 6, 24 and 48 hours the cells were harvested. After washing the cells with Solution A (150 mM sucrose, 80 mM KCl, 35 mM Hepes (pH 7.4), 5 mM potassium phosphate (pH 7.4), 5 mM MgCl2, 0.5 mM CaCl2), these cells were treated for 1 minute at 4° C. with Solution A containing 0.25 mg/ml lysolecithin. […] 75 μl of 0.2N NaOH was added to the DNA obtained, which was then incubated for 30 minutes at 37° C. and mixed with 5 ml of AQUASOL-2 (Packard), and radioactivity was measured with an Aloka LSC-5100 liquid scintillation counter. […]
2×10^6 MCF7 cells were propagated on 10 cm petri dishes, and after 24 hours a TP53R2H antisense oligonucleotide (AS3) a sense oligonucleotide (SE3) and a p53 antisense oligonucleotide (p53AS) were introduced according to attached protocol using a lipofectin reagent (GIBCO BRL). […] DNA repair activity was then measured in the same way as in Example 4 above.

MCF7 cells [2] = assay: Long-term cell survival (colony count after three weeks) after oligonucleotide introduction and DNA damage; conditions: colonies counted after three weeks
Experimental: (§1) Short-term and long-term cell survival rates were also measured when TP53R2H expression was suppressed with an antisense oligonucleotide and DNA was damaged.
(§2) 2×10^6 MCF7 cells) were propagated on 10 cm Petri dishes, and after 24 hours a p53R2 antisense oligonucleotide (AS3), a sense oligonucleotide (SE3) and a p53 antisense oligonucleotide (p53AS) were introduced using a lipofectin reagent. 4 hours later the cellular DNA was damaged (3 or 14 Gy γ-ray irradiation, adiamycin 0.2 μg/ml, UV 10 J/m^2).
(§3) In order to study short-term cell survival, the cells were stripped immediately after DNA damage and re-propagated on 6-hole plates to a density of 3×10^5, and cell numbers were counted every day for 6 days. To study long-term cell survival, the cells were re-propagated after DNA damage on 10 cm plates to a density of 1×10^4 or 1×10^3, and the number of colonies 1 mm or more in diameter was counted after three weeks and expressed as a percentage.

MCF7 cells [3] = assay: Short-term cell survival (cell numbers counted every day for 6 days) after oligonucleotide introduction and DNA damage; conditions: in both the short- and long-term, after DNA damage (Table 1 and FIG. 6)
Experimental: as §1, §2, §3

Substance | DNA repair activity (MCF7 cells [1]) | long-term cell survival (number of colonies 1 mm or more in diameter, expressed as a percentage) (MCF7 cells [2]; Adriamycin (0.2 μg/ml)) [%] | long-term cell survival (number of colonies 1 mm or more in diameter, expressed as a percentage) (MCF7 cells [2]; UV (10 J/m2)) [%] | long-term cell survival (number of colonies 1 mm or more in diameter, expressed as a percentage) (MCF7 cells [2]; γ-radiation (3Gy)) [%] | sensitivity to DNA damage / cell death (MCF7 cells [3])
AsCsAsTsTsTsAsCsCsTsCsAsTsCsCsT (ACATTTACCTCATCCT; all phosphorothioate, sugars by position and methylation of C not given here) [AS3] | DNA repair activity declined | 16 | 22 | 59 | sensitivity to DNA damage increases and cell death is more likely
AsGsGsAsTsGsAsGsGsTsAsAsAsTsGsT (AGGATGAGGTAAATGT; all phosphorothioate, sugars by position not given here) [SE3] |  | 100 | 100 | 100 | 
CsCsCsTsGsCsTsCsCsCsCsCsCsTsGsGsCsTsCsC (CCCTGCTCCCCCCTGGCTCC; all phosphorothioate, sugars by position and methylation of C not given here) [p53AS] | DNA repair activity also declined | 10 | 11 | 15 | 
